What all share (assay): two-electrode voltage clamp, Xenopus oocytes, inward current
Holding throughout (format): cell-based
(In general: In two-electrode clamp one electrode senses voltage and the other passes current.)

In experiment [1] the target is T1, AsegOR10 (Agrotis segetum, UniProt U5KJI4).
T1 construct: full-length ORF, 432 aa, pCS2+ cRNA co-injected with Orco (473 aa) cRNA in Xenopus laevis oocytes; with Odorant receptor co-receptor (Orco)
T1 sequence (U5KJI4 1-432): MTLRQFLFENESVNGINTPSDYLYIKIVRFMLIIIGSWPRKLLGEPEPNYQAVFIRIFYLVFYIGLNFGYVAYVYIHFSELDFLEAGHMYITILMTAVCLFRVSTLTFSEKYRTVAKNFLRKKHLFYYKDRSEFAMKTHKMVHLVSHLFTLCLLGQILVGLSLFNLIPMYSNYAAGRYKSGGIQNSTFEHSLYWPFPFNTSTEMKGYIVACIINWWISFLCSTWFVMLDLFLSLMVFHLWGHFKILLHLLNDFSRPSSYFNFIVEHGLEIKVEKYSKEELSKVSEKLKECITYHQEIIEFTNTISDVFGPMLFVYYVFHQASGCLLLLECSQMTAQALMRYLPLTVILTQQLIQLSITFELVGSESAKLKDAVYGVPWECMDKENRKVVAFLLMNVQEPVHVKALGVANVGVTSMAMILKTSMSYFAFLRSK
T1 sequence (U5KJY5 1-473 partner): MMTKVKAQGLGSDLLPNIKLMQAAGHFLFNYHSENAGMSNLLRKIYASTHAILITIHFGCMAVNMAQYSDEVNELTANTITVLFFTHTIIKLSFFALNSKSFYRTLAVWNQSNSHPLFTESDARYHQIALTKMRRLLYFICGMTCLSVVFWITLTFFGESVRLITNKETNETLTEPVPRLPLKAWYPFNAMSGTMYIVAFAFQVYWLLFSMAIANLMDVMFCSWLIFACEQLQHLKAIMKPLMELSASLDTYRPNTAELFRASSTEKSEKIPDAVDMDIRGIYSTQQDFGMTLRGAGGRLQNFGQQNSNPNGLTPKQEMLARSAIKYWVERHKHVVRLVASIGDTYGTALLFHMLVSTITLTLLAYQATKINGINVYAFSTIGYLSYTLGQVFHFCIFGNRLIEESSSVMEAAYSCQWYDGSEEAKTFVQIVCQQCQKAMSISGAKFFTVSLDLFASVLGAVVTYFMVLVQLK
The settings on record: agonist, 100 uM stimulus, 20 s, -80 mV, Ringer's pH 7.6, with Orco.

Experiment [2] addresses T2, AsegOR5 (Agrotis segetum, UniProt U5KJI3).
T2 construct: full-length ORF, 443 aa, pCS2+ cRNA co-injected with Orco (473 aa) cRNA in Xenopus laevis oocytes; with Odorant receptor co-receptor (Orco)
T2 sequence (U5KJI3 1-443): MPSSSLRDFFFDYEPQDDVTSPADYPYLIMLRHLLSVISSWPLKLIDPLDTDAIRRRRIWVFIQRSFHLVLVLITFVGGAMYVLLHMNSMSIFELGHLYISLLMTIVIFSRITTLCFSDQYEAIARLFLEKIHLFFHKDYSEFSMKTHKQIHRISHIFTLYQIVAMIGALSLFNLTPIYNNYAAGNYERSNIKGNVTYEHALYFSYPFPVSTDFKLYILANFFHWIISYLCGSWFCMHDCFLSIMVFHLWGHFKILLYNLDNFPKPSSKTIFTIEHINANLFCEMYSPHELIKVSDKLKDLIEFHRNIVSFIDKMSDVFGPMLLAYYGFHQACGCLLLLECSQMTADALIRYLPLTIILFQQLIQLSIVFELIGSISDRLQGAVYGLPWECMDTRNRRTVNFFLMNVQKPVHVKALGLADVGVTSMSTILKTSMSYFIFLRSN
T2 sequence (U5KJY5 1-473 partner): T1 sequence (U5KJY5 1-473 partner)
The conditions noted are these: agonist, 100 uM stimulus, 20 s, -80 mV, Ringer's pH 7.6, with Orco.

Experiment [3] addresses T3, AsegOR9 (Agrotis segetum, UniProt U5KJQ9).
T3 construct: full-length ORF, 433 aa, pCS2+ cRNA co-injected with Orco (473 aa) cRNA in Xenopus laevis oocytes; with Odorant receptor co-receptor (Orco)
T3 sequence (U5KJQ9 1-433): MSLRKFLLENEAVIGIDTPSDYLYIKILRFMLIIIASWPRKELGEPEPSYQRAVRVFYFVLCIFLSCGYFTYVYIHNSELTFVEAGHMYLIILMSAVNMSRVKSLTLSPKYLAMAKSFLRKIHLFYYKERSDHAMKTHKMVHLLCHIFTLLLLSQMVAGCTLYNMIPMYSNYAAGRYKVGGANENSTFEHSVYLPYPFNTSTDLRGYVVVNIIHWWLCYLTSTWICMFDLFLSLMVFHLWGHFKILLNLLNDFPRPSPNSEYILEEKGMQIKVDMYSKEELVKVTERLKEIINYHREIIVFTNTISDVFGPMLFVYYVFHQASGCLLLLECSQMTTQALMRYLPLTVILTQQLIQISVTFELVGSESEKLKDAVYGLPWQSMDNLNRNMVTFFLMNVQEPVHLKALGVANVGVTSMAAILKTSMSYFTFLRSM
T3 sequence (U5KJY5 1-473 partner): T1 sequence (U5KJY5 1-473 partner)
The settings on record: agonist; 100 uM stimulus, 20 s, -80 mV, Ringer's pH 7.6, with Orco; dose response curve.

Experiment [4] has as its target T4, AsegOR8 (Agrotis segetum, UniProt U5KJT2).
T4 construct: with Odorant receptor co-receptor (Orco)
T4 sequence (U5KJT2 1-430): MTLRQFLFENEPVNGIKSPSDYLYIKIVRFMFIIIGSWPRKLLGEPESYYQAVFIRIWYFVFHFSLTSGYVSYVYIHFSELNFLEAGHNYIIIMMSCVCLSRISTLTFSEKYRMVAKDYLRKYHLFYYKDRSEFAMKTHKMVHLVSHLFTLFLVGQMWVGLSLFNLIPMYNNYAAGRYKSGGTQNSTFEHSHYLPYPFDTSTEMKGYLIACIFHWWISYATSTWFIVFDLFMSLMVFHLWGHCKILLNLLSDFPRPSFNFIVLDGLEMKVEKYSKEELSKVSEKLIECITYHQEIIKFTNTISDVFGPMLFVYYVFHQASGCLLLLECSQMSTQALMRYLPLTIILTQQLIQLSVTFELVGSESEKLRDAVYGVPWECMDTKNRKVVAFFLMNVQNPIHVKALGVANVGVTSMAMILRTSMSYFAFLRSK
T4 sequence (U5KJY5 1-473 partner): T1 sequence (U5KJY5 1-473 partner)
The settings on record: agonist; 100 uM stimulus, 20 s, -80 mV, Ringer's pH 7.6, with Orco; dose response curve.

Experiment [5] addresses T5, AsegOR1 (Agrotis segetum, UniProt U5KK32).
T5 construct: full-length ORF, 432 aa, pCS2+ cRNA co-injected with Orco (473 aa) cRNA in Xenopus laevis oocytes; with Odorant receptor co-receptor (Orco)
T5 sequence (U5KK32 1-432): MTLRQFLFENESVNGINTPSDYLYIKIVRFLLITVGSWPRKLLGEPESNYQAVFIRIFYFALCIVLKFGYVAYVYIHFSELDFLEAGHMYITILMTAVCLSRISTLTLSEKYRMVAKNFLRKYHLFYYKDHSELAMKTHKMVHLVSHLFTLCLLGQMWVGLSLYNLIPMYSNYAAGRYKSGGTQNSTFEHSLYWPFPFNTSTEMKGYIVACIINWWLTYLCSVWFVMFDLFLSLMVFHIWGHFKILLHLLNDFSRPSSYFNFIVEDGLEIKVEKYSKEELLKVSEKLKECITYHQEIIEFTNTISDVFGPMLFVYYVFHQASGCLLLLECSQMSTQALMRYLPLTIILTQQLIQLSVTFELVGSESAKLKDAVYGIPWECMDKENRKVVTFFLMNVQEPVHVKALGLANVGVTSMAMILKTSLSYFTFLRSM
T5 sequence (U5KJY5 1-473 partner): T1 sequence (U5KJY5 1-473 partner)
The settings on record: agonist; 100 uM stimulus, 20 s, -80 mV, Ringer's pH 7.6, with Orco; dose response curve.

The target in experiment [6] is T6, AsegOR6 (Agrotis segetum, UniProt U5KJY6).
T6 construct: full-length ORF, 430 aa, pCS2+ cRNA co-injected with Orco (473 aa) cRNA in Xenopus laevis oocytes; with Odorant receptor co-receptor (Orco)
T6 sequence (U5KJY6 1-430): T4 sequence (U5KJT2 1-430) with S48P, Q51K, V53I, F60L, S279L, R368K, A425T
T6 sequence (U5KJY5 1-473 partner): T1 sequence (U5KJY5 1-473 partner)
The conditions noted are these: agonist; 100 uM stimulus, 20 s, -80 mV, Ringer's pH 7.6, with Orco; dose response curve.

Experiment [7] has as its target T7, AsegOR7 (Agrotis segetum, UniProt U5KK33).
T7 construct: with Odorant receptor co-receptor (Orco)
T7 sequence (U5KK33 1-432): T5 sequence (U5KK32 1-432) with L31M, I33V, S101F, I103V, M114T, H131R, L134Y, I376V, K383T, E384K
T7 sequence (U5KJY5 1-473 partner): T1 sequence (U5KJY5 1-473 partner)
The conditions noted are these: agonist; 100 uM stimulus, 20 s, -80 mV, Ringer's pH 7.6, with Orco.

For experiment [8], the target named is T8, AsegOR4 (Agrotis segetum, UniProt U5KJQ7).
T8 construct: full-length ORF, 424 aa, pCS2+ cRNA co-injected with Orco (473 aa) cRNA in Xenopus laevis oocytes; with Odorant receptor co-receptor (Orco)
T8 sequence (U5KJQ7 1-424): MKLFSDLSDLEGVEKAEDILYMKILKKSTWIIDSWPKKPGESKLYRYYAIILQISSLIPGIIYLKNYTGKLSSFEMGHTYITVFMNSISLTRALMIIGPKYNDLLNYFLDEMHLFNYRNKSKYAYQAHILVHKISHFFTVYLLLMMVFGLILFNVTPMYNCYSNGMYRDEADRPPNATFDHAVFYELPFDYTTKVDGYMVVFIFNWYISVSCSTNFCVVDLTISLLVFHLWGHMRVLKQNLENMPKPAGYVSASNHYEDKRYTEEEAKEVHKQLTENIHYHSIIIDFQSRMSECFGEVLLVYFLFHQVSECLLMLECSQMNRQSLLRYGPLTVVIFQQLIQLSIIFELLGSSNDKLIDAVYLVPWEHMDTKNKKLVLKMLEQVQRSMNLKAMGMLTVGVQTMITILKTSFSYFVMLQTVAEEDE
T8 sequence (U5KJY5 1-473 partner): T1 sequence (U5KJY5 1-473 partner)
The conditions noted are these: agonist; 100 uM stimulus, 20 s, -80 mV, Ringer's pH 7.6, with Orco; dose response curve.

Experiment [9] addresses T9, AsegOR3 (Agrotis segetum, UniProt U5KJT1).
T9 construct: full-length ORF, 435 aa, pCS2+ cRNA co-injected with Orco (473 aa) cRNA in Xenopus laevis oocytes; with Odorant receptor co-receptor (Orco)
T9 sequence (U5KJT1 1-435): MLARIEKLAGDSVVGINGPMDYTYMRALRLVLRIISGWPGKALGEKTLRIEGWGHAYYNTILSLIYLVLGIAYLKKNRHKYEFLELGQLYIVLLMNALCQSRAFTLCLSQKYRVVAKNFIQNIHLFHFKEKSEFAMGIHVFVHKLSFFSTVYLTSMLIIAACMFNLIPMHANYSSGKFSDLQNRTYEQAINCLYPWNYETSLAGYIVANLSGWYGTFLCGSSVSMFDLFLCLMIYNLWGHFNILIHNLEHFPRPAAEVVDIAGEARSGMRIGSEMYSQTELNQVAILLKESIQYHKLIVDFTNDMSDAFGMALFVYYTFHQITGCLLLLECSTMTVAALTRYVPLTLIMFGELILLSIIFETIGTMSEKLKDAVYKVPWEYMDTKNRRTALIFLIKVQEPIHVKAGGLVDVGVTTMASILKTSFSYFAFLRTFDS
T9 sequence (U5KJY5 1-473 partner): T1 sequence (U5KJY5 1-473 partner)
The conditions noted are these: agonist; 100 uM stimulus, 20 s, -80 mV, Ringer's pH 7.6, with Orco.

Where a chain is given by its changes, count along the chain named.

`CCCC/C=C\CCCCCCCCOC(C)=O` [Z9-14:OAc]: the “two-electrode voltage clamp, Xenopus oocytes, inward current” value (“two-electrode voltage clamp” for short) was “AsegOR10 responded to Z9-14:OAc and Z5-10:OAc but with low sensitivity” in experiment [1]; “AsegOR5 (Cluster II) showed the largest response to Z9-14:OAc” in [2] (dose response curve).
Regarding `CCCC/C=C\CCCCOC(C)=O` [Z5-10:OAc], the “two-electrode voltage clamp” value in [3] is “co-expressing AsegOR9 (Cluster I) and Aseg\Orco robustly and specifically responded to Z5-10:OAc”; in experiment [4], “Different sensitivities of the six paralogues to the main pheromone component Z5-10:OAc”; in [1] (dose response curve) it was “AsegOR10 responded to Z9-14:OAc and Z5-10:OAc but with low sensitivity”; in experiment [5], “Oocytes co-expressing AsegOR1 and Aseg\Orco also responded to Z5-10:OAc”.
As to `CCCC/C=C\CCCCO` [Z5-10:OH], the “two-electrode voltage clamp” value in experiment [6] is “oocytes that showed the strongest response to another antagonist Z5-10:OH”; in [4], “Two of them (AsegOR6 and AsegOR8) showed strong responses to Z5-10:OH (Figure 5B)”.
`CCC/C=C\CCCCCCCOC(C)=O` [Z8-12:OAc]: the “two-electrode voltage clamp” value in experiment [7] is “receptors for Z8-12:OAc and Z7-12:OAc (AsegOR1 and AsegOR7)”.
In the case of `CCCC/C=C\CCCCCCOC(C)=O` [Z7-12:OAc], the “two-electrode voltage clamp” value was “receptors for Z8-12:OAc and Z7-12:OAc (AsegOR1 and AsegOR7)” in experiment [7]; “AsegOR4 (Cluster IV) was specifically responsive to the pheromone component Z7-12:OAc” in experiment [8]; “albeit with Z7-12:OAc standing out as the most active one” in experiment [9]; “a much smaller response to Z7-12:OAc and marginal responses to other tested compounds” in [2].

Values taken from paper PMC3795068, “Functional Evolution of a Multigene Family: Orthologous and Paralogous Pheromone Receptor Genes in the Turnip Moth, Agrotis segetum” (PLoS ONE, 2013).
